Reference: patent US20240376094A2, “SELECTIVE BCL-XL PROTAC COMPOUNDS AND METHODS OF USE” (Les Laboratoires Servier, priority 2021, published 2024)
Like-named read-outs stand apart in the source and are kept apart here.

What was measured:
[1] = target: T1, HiBiT-tagged BCL-xL (Homo sapiens, UniProt Q07817); experiment: NCI-H1650 BCL-xL protein levels, Nano-Glo HiBiT Lytic Detection; assay type: cell-based; conditions: NCI-H1650 expressing HiBiT-tagged BCL-xL, overnight incubation, read-out: Bcl-xl HIBIT NCIH1650 DC50
T1 construct: expressed in transfected cells; host or cells: NCI-H1650 (ATCC No. CRL-5883), engineered HiBiT cell line
T1 sequence (Q07817 whole entry): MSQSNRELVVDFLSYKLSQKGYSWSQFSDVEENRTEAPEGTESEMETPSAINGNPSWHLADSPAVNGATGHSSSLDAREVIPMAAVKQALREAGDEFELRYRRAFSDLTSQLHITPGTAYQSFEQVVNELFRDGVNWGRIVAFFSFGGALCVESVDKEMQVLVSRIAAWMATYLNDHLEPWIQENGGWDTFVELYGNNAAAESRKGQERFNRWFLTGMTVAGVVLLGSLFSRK
Description: (§1) The ability of the BCL-xL degrader low molecular weight compounds to degrade BCL-xL protein was assessed using the Promega Nano-Glo® HiBiT Lytic Detection System. The NCI-H1650 (ATCC No. CRL-5883) was engineered to express HiBiT-tagged BCL-xL. The NCI-H1650 HiBiT cell line was cultured in media that is optimal for their growth at 5% CO2, 37° C. in a tissue culture incubator. Prior to seeding for the protein level assay, the cells were split at least 2 days before the assay to ensure optimal growth density. On the day of seeding, cells were lifted off tissue culture flasks using 0.25% trypsin. Cell viability and cell density were determined using a cell counter (Vi-Cell XR Cell Viability Analyzer, Beckman Coulter). Cells with higher than 85% viability were seeded in white clear bottom 384-well plates (Greiner cat #781098) at a density of 5000 cells per well in 30 μL of standard growth media. Plates were incubated at 37° C. overnight in a tissue culture incubator.
(§2) The BCL-xL degrader low molecular weight compounds were prepared to desired concentrations. A series of 10 dilutions were made for each prepared compound. The prepared compounds were then added to the cells resulting in final concentrations of 0.508 nM-10 μM. An acoustic transfer device (Echo555, Beckman Coulter) was used to add the compounds to the cells. Each treatment was tested in triplicate assay plates. Plates were incubated at 37° C. overnight in a tissue culture incubator.
BCL-xL degradation was assessed through the addition of 30 μL of Nano-Glo® HiBiT Lytic Reagent (Promega, cat #N3040), a reagent which lyses cells and contains a furimazine substrate and the large subunit (LgBiT) used in NanoLuc® Binary Technology. The LgBiT subunit having high affinity to a HiBiT-tagged protein will bind HiBiT, if present, resulting in complex formation of a luminescent NanoBiT® enzyme. This reaction will emit a luminescent signal proportional to the amount of HiBiT-tagged BCL-xL present in the cell lysate. Plates were incubated at room temperature for 20 minutes to stabilize luminescent signals prior to reading using a luminescence reader (PHERAstar FSX Microplate Reader, BMG Labtech).
To evaluate the effect of the drug treatments, luminescent counts from wells containing untreated cells (100% HiBiT-tagged BCL-xL) were used to normalize treated samples. The concentrations of treatment required to inhibit 50% were calculated using a four parameter logistic regression equation.

[2] = test system: EBC-1 lung cancer cell line; experiment: EBC-1 cell proliferation, CellTiter-Glo assay; assay type: cell-based; conditions: Ebc-1 cell viability, CTG assay, 5 days of treatment, read-out: CTG 5 day Ebc1 GI50
Description: as §1, with “to inhibit cell proliferation and survival” for “to degrade BCL-xL protein”, “Promega CellTiter-Glo® proliferation assay on the EBC-1 lung cancer” for “Promega Nano-Glo® HiBiT Lytic Detection System. The NCI-H1650 (ATCC No. CRL-5883) was engineered to express HiBiT-tagged BCL-xL. The NCI-H1650 HiBiT”, “line (RCB1965, obtained from RIKEN.) The cells were” for “line was”, “the proliferation” for “the protein level”, “of 1000” for “of 5000”, “in 50” for “in 30”
as §2, with “overnight or for 5 days” for “overnight”, “incubator. The ability of the compounds to inhibit cell proliferation and survival was assessed using the Promega CellTiter-Glo® proliferation assay. Plates were incubated at room temperature for 20 minutes to stabilize luminescent signals prior to reading using a multimode plate reader (PHERAstar FSX Microplate Reader, BMG Labtech).” for “incubator.”
To evaluate the effect of the compound treatments, luminescent counts of untreated cells were taken the day after seeding (Day 0 readings), and after 5 days of treatment (Day 5 readings). The Day 5 readings of the untreated cells were compared to the Day 0 readings. Assays with at least one cell doubling during the incubation period were considered valid. To evaluate the effect of the drug treatments, luminescent counts from wells containing untreated cells (100% viability) were used to normalize treated samples. The concentrations of treatment required to inhibit 50% of cell growth or survival ([…]) were calculated using a four parameter logistic regression equation.

Row | Structure (SMILES) | DC50 [1] | GI50 ([2]; Homo sapiens, 120 h) | GI50 [2]
1 | Cc1cc(N(CCCCN(C)C(=O)CCCCCCCCCCCCSC(C)(C)[C@H](NC(=O)C2(F)CC2)C(=O)N2C[C@H](O)C[C@H]2C(=O)NCc2ccc(-c3scnc3C)cc2)c2ccc(-c3cnn(CC45CC6(C)CC(C)(C4)CC(OCCN(C)C)(C6)C5)c3C)c(C(=O)O)n2)nnc1Nc1nc2ccccc2s1 [Example 127, 6-[[6-(1,3-benzothiazol-2-ylamino)-5-methyl-pyridazin-3-yl]-[4-[13-[(2R)-2-[(1-fluorocyclopropanecarbonyl)amino]-3-[(2S,4R)-4-hydroxy-2-[[4-(4-methylthiazol-5-yl)phenyl]methylcarbamoyl]pyrrolidin-1-yl]-1,1-dimethyl-3-oxo-propyl]sulfanyltridecanoyl-methyl-amino]butyl]amino]-3-[1-[[3-[2-(dimethylamino)ethoxy]-5,7-dimethyl-1-adamantyl]methyl]-5-methyl-pyrazol-4-yl]pyridine-2-carboxylic acid] | 33 nM | 462 nM | 
2 | Cc1ncsc1-c1ccc([C@H](C)NC(=O)[C@@H]2C[C@@H](O)CN2C(=O)[C@@H](NC(=O)CCOCCOCCNC(=O)c2nc(N3CCCc4c3nnc(Nc3nc5ccccc5s3)c4C)ccc2-c2cnn(CC34CC5(OCCN6CCCC6)C[C@](C)(C3)C[C@](C)(C4)C5)c2C)C(C)(C)C)cc1 [Example 158, 6-(3-(benzo[d]thiazol-2-ylamino)-4-methyl-6,7-dihydropyrido[2,3-c]pyridazin-8(5H)-yl)-3-(1-(((1r,3R,5S,7s)-3,5-dimethyl-7-(2-(pyrrolidin-1-yl)ethoxy)adamantan-1-yl)methyl)-5-methyl-1H-pyrazol-4-yl)-N-(2-(2-(3-(((S)-1-((2S,4R)-4-hydroxy-2-(((S)-1-(4-(4-methylthiazol-5-yl)phenyl)ethyl)carbamoyl)pyrrolidin-1-yl)-3,3-dimethyl-1-oxobutan-2-yl)amino)-3-oxopropoxy)ethoxy)ethyl)picolinamide] | > 1670 nM |  | 10 nM
3 | Cc1ncsc1-c1ccc([C@H](C)NC(=O)[C@@H]2C[C@@H](O)CN2C(=O)[C@@H](NC(=O)CCOCCOCCOCCNC(=O)c2nc(N3CCCc4c3nnc(Nc3nc5ccccc5s3)c4C)ccc2-c2cnn(CC34CC5(C)CC(C)(C3)CC(OCCN3CCCC3)(C5)C4)c2C)C(C)(C)C)cc1 [Example 159, 6-(3-(benzo[d]thiazol-2-ylamino)-4-methyl-6,7-dihydropyrido[2,3-c]pyridazin-8(5H)-yl)-3-(1-(((1r,3R,5S,7s)-3,5-dimethyl-7-(2-(pyrrolidin-1-yl)ethoxy)adamantan-1-yl)methyl)-5-methyl-1H-pyrazol-4-yl)-N—((S)-14-((2S,4R)-4-hydroxy-2-(((S)-1-(4-(4-methylthiazol-5-yl)phenyl)ethyl)carbamoyl)pyrrolidine-1-carbonyl)-15,15-dimethyl-12-oxo-3,6,9-trioxa-13-azahexadecyl)picolinamide] | > 1670 nM | 8 nM | 
4 | Cc1ncsc1-c1ccc([C@H](C)NC(=O)[C@@H]2C[C@@H](O)CN2C(=O)[C@@H](NC(=O)[C@H]2CC[C@H](NC(=O)c3nc(N4CCCc5c4nnc(Nc4nc6ccccc6s4)c5C)ccc3-c3cnn(CC45CC6(C)CC(C)(C4)CC(OCCN4CCCC4)(C6)C5)c3C)CC2)C(C)(C)C)cc1 [Example 162, 6-(3-(benzo[d]thiazol-2-ylamino)-4-methyl-6,7-dihydropyrido[2,3-c]pyridazin-8(5H)-yl)-3-(1-(((1r,3R,5S,7s)-3,5-dimethyl-7-(2-(pyrrolidin-1-yl)ethoxy)adamantan-1-yl)methyl)-5-methyl-1H-pyrazol-4-yl)-N-((1S,4R)-4-(((S)-1-((2S,4R)-4-hydroxy-2-(((S)-1-(4-(4-methylthiazol-5-yl)phenyl)ethyl)carbamoyl)pyrrolidin-1-yl)-3,3-dimethyl-1-oxobutan-2-yl)carbamoyl)cyclohexyl)picolinamide] | > 1670 nM | 222 nM | 
5 | Cc1ncsc1-c1ccc([C@H](C)NC(=O)[C@@H]2C[C@@H](O)CN2C(=O)[C@@H](NC(=O)C[C@H]2CC[C@@H](NC(=O)c3nc(N4CCCc5c4nnc(Nc4nc6ccccc6s4)c5C)ccc3-c3cnn(CC45CC6(C)CC(C)(C4)CC(OCCN4CCCC4)(C6)C5)c3C)CC2)C(C)(C)C)cc1 [Example 163, 6-(3-(benzo[d]thiazol-2-ylamino)-4-methyl-6,7-dihydropyrido[2,3-c]pyridazin-8(5H)-yl)-3-(1-(((1r,3R,5S,7s)-3,5-dimethyl-7-(2-(pyrrolidin-1-yl)ethoxy)adamantan-1-yl)methyl)-5-methyl-1H-pyrazol-4-yl)-N-((1R,4S)-4-(2-(((S)-1-((2S,4R)-4-hydroxy-2-(((S)-1-(4-(4-methylthiazol-5-yl)phenyl)ethyl)carbamoyl)pyrrolidin-1-yl)-3,3-dimethyl-1-oxobutan-2-yl)amino)-2-oxoethyl)cyclohexyl)picolinamide] | 6 nM | 22 nM | 

The next molecules have a lower DC50 [1] than those just listed; values first:

Row | DC50 [1] | GI50 ([2]; Homo sapiens, 120 h) | Structure (SMILES) | GI50 [2]
6 | 2 nM | 58 nM | Cc1ncsc1-c1ccc([C@H](C)NC(=O)[C@@H]2C[C@@H](O)CN2C(=O)[C@@H](NC(=O)CCOCCOCCOCCN(C)C(=O)c2nc(N3CCCc4c3nnc(Nc3nc5ccccc5s3)c4C)ccc2-c2cnn(CC34CC5(C)CC(C)(C3)CC(OCCN3CCCC3)(C5)C4)c2C)C(C)(C)C)cc1 [Example 160, 6-(3-(benzo[d]thiazol-2-ylamino)-4-methyl-6,7-dihydropyrido[2,3-c]pyridazin-8(5H)-yl)-3-(1-(((1r,3R,5S,7s)-3,5-dimethyl-7-(2-(pyrrolidin-1-yl)ethoxy)adamantan-1-yl)methyl)-5-methyl-1H-pyrazol-4-yl)-N—((S)-14-((2S,4R)-4-hydroxy-2-(((S)-1-(4-(4-methylthiazol-5-yl)phenyl)ethyl)carbamoyl)pyrrolidine-1-carbonyl)-15,15-dimethyl-12-oxo-3,6,9-trioxa-13-azahexadecyl)-N-methylpicolinamide] | 
7 | 0.4 nM | 8 nM | Cc1ncsc1-c1ccc([C@H](C)NC(=O)[C@@H]2C[C@@H](O)CN2C(=O)C(NC(=O)CCCCCCCCN(C)C(=O)c2nc(N3CCCc4c3nnc(Nc3nc5ccccc5s3)c4C)ccc2-c2cnn(CC34CC5(C)CC(C)(C3)CC(OCCN3CCCC3)(C5)C4)c2C)C(C)(C)C)cc1 (stereo partly drawn) [Example 161, 6-(3-(benzo[d]thiazol-2-ylamino)-4-methyl-6,7-dihydropyrido[2,3-c]pyridazin-8(5H)-yl)-3-(1-(((1r,3R,5S,7s)-3,5-dimethyl-7-(2-(pyrrolidin-1-yl)ethoxy)adamantan-1-yl)methyl)-5-methyl-1H-pyrazol-4-yl)-N-(9-(((S)-1-((2S,4R)-4-hydroxy-2-(((S)-1-(4-(4-methylthiazol-5-yl)phenyl)ethyl)carbamoyl)pyrrolidin-1-yl)-3,3-dimethyl-1-oxobutan-2-yl)amino)-9-oxononyl)-N-methylpicolinamide] | 
